Tests used:
Assay type in all cases: cell-based
[1] = test system: Ps. acruginosa ATCC 27853; assay: MIC, agar dilution (Table IA); conditions: unit assumed
E. coli J2175 = assay: MIC, agar dilution (Table IA); conditions: unit assumed
[2] = test system: S. aureus UBMS 88-7 (tetK); assay: MIC, agar dilution; conditions: for Antibacterial activity (MIC): S. aureus UBMS 88-7 TetK, Table IA, unit assumed; for MIC: S. aureus UBMS 88-7 (tetK)
[3] = test system: X. maltophilia NEMC 87210; assay: MIC, agar dilution (Table IA); conditions: unit assumed
E. coli BAJ9003 = assay: MIC, agar dilution (Table IA); conditions: unit assumed
E. coli MC4100 TetB = assay: MIC, agar dilution (Table IA); conditions: unit assumed
[4] = test system: E. coli UBMS 89-2 (Sensitive); assay: MIC, agar dilution; conditions: for Antibacterial activity (MIC): E. coli UBMS 89-2 Tet Sens., Table IA, unit assumed; for MIC: E. coli UBMS 89-2 (Sensitive)
[5] = test system: S. aureus UBMS 90-3 (Sensitive); assay: MIC, agar dilution; conditions: for Antibacterial activity (MIC): S. aureus UBMS 90-3, Table IA, unit assumed; for MIC: S. aureus UBMS 90-3 (Sensitive)
E. coli ATCC 25922 = assay: MIC, agar dilution; conditions: E. coli ATCC 25922; for Antibacterial activity (MIC): Table IA, unit assumed
[6] = test system: S. aureus UBMS 90-2 (tetM); assay: MIC, agar dilution; conditions: for Antibacterial activity (MIC): S. aureus UBMS 90-2 TetM, Table IA, unit assumed; for MIC: S. aureus UBMS 90-2 (tetM)
E. coli J3272 Tet sens. = assay: MIC, agar dilution (Table IA); conditions: unit assumed
[7] = test system: S. aureus UBMS 88-5 (tetM); assay: MIC, agar dilution; conditions: for Antibacterial activity (MIC): S. aureus UBMS 88-5 TetM, Table IA, unit assumed; for MIC: S. aureus UBMS 88-5 (tetM)
E. coli UBMS 90-5 = assay: MIC, agar dilution (Table IA); conditions: unit assumed
[8] = test system: S. aureus UBMS 90-1 (tetM); assay: MIC, agar dilution; conditions: for Antibacterial activity (MIC): S. aureus UBMS 90-1 TetM, Table IA, unit assumed; for MIC: S. aureus UBMS 90-1 (tetM)
[9] = test system: S. aureus IVES 2943 (meth. resistant); assay: MIC, agar dilution; conditions: for Antibacterial activity (MIC): S. aureus IVES 2943, Table IA, unit assumed; for MIC: S. aureus IVES 2943 (meth. resistant)
[10] = test system: S. aureus IVES 1983 (meth. resistant); assay: MIC, agar dilution; conditions: for Antibacterial activity (MIC): S. aureus IVES 1983, Table IA, unit assumed; for MIC: S. aureus IVES 1983 (meth. resistant)
[11] = test system: S. aureus Smith (Sensitive); assay: MIC, agar dilution; conditions: for Antibacterial activity (MIC): S. aureus SMITH (MP), Table IA, unit assumed; for MIC: S. aureus Smith (Sensitive)
E. faecalis ATCC 29212 = assay: MIC, agar dilution; conditions: E. faecalis ATCC 29212; for Antibacterial activity (MIC): Table IA, unit assumed
[12] = test system: S. haemolyticus AVAH 88-3; assay: MIC, agar dilution; conditions: for Antibacterial activity (MIC): S. hemolyticus AVHAH 88-3, Table IA, unit assumed; for MIC: S. haemolyticus AVAH 88-3
E. coli UBMS 89-1 (tetM) = assay: MIC, agar dilution; conditions: for Antibacterial activity (MIC): E. coli UBMS 89-1 TetM, Table IA, unit assumed; for MIC: E. coli UBMS 89-1 (tetM)
[13] = test system: S. aureus UBMS 88-4 (Sensitive); assay: MIC, agar dilution; conditions: for Antibacterial activity (MIC): S. aureus UBMS 88-4, Table IA, unit assumed; for MIC: S. aureus UBMS 88-4 (Sensitive)
E. coli UBMS 88-1 (tetB) = assay: MIC, agar dilution; conditions: for Antibacterial activity (MIC): E. coli UBMS 88-1 TetB, Table IA, unit assumed; for MIC: E. coli UBMS 88-1 (tetB)
E. coli J3272 TetD = assay: MIC, agar dilution (Table IA); conditions: unit assumed
S. mariescens FDOR 8733 = assay: MIC, agar dilution (Table IA); conditions: unit assumed
E. faecalis 12201 = assay: MIC, agar dilution; conditions: for Antibacterial activity (MIC): Enterococcus 12201, Table IA, unit assumed; for MIC: E. faecalis 12201
S. aureus NEMC 8769/89-4 = assay: MIC, agar dilution (Table IA); conditions: unit assumed
E. coli J3272 TetC = assay: MIC, agar dilution (Table IA); conditions: unit assumed
E. coli #311 (MP) = assay: MIC, agar dilution (Table IA); conditions: unit assumed
[14] = test system: S. aureus ATCC 29213 (Sensitive); assay: MIC, agar dilution; conditions: for Antibacterial activity (MIC): S. aureus ATCC 29213, Table IA, unit assumed; for MIC: S. aureus ATCC 29213 (Sensitive)
S. aureus ROSE (MP) = assay: MIC, agar dilution (Table IA); conditions: unit assumed
E. coli PRP1 TetA = assay: MIC, agar dilution (Table IA); conditions: unit assumed
[15] = test system: E. coli UBMS 88-2 (Sensitive); assay: MIC, agar dilution; conditions: E. coli UBMS 88-2 (Sensitive)

## CN(C)c1cc(NC(=O)CBr)c(O)c2c1CC1CC3[C@H](N(C)C)C(O)=C(C(N)=O)C(=O)[C@@]3(O)C(O)=C1C2=O.Cl.Cl (stereo partly drawn) [III, [4S-(4alpha,12aalpha)]-9-[(Bromoacetyl)amino)-4,7-bis(dimethylamino)-1,4,4a,5,5a,6,11,12a-octahydro-3,10,12,12a-tetrahydroxy-1,11-dioxo-2-naphthacenecarboxamide dihydrochloride]
[1]
  Antibacterial activity (MIC): > 32 µg/mL
E. coli J2175
  Antibacterial activity (MIC): 32 µg/mL
[2]
  Antibacterial activity (MIC): 2 µg/mL
[3]
  Antibacterial activity (MIC): 4 µg/mL
E. coli BAJ9003
  Antibacterial activity (MIC): 0.25 µg/mL
E. coli MC4100 TetB
  Antibacterial activity (MIC): > 32 µg/mL
[4]
  Antibacterial activity (MIC): 32 µg/mL
[5]
  Antibacterial activity (MIC): 0.5 µg/mL
E. coli ATCC 25922
  Antibacterial activity (MIC): 16 µg/mL
[6]
  Antibacterial activity (MIC): 0.5 µg/mL
E. coli J3272 Tet sens.
  Antibacterial activity (MIC): 16 µg/mL
[7]
  Antibacterial activity (MIC): 1 µg/mL
E. coli UBMS 90-5
  Antibacterial activity (MIC): 16 µg/mL
[8]
  Antibacterial activity (MIC): 1 µg/mL
[9]
  Antibacterial activity (MIC): 4 µg/mL
[10]
  Antibacterial activity (MIC): 4 µg/mL
[11]
  Antibacterial activity (MIC): 0.5 µg/mL
E. faecalis ATCC 29212
  Antibacterial activity (MIC): 0.5 µg/mL
[12]
  Antibacterial activity (MIC): 2 µg/mL
E. coli UBMS 89-1 (tetM)
  Antibacterial activity (MIC): 4 µg/mL
[13]
  Antibacterial activity (MIC): 0.5 µg/mL
E. coli UBMS 88-1 (tetB)
  Antibacterial activity (MIC): > 32 µg/mL
E. coli J3272 TetD
  Antibacterial activity (MIC): 32 µg/mL
S. mariescens FDOR 8733
  Antibacterial activity (MIC): > 32 µg/mL
E. faecalis 12201
  Antibacterial activity (MIC): 1 µg/mL
S. aureus NEMC 8769/89-4
  Antibacterial activity (MIC): 0.12 µg/mL
E. coli J3272 TetC
  Antibacterial activity (MIC): > 32 µg/mL
E. coli #311 (MP)
  Antibacterial activity (MIC): 8 µg/mL
[14]
  Antibacterial activity (MIC): 0.5 µg/mL
S. aureus ROSE (MP)
  Antibacterial activity (MIC): 8 µg/mL
E. coli PRP1 TetA
  Antibacterial activity (MIC): > 32 µg/mL

## CN(C)c1cc(NC(=O)CN2CCOCC2)c(O)c2c1CC1CC3[C@H](N(C)C)C(O)=C(C(N)=O)C(=O)[C@@]3(O)C(O)=C1C2=O.Cl.Cl (stereo partly drawn) [NN, [7S-(7alpha,10aalpha)]-N-[9-(Aminocarbonyl)-4,7-bis(dimethylamino)-5,5a,6,6a,7,10,10a,12-octahydro-1,8,10a,11-tetrahydroxy-10,12-dioxo-2-naphthacenyl)-4-morpholineacetamide dihydrochloride]
[1]
  Antibacterial activity (MIC): > 32 µg/mL
E. coli J2175
  Antibacterial activity (MIC): > 32 µg/mL
[2]
  Antibacterial activity (MIC): 32 µg/mL
[3]
  Antibacterial activity (MIC): 32 µg/mL
E. coli BAJ9003
  Antibacterial activity (MIC): 0.5 µg/mL
E. coli MC4100 TetB
  Antibacterial activity (MIC): > 32 µg/mL
[4]
  Antibacterial activity (MIC): > 32 µg/mL
[5]
  Antibacterial activity (MIC): 2 µg/mL
E. coli ATCC 25922
  Antibacterial activity (MIC): > 32 µg/mL
[6]
  Antibacterial activity (MIC): 2 µg/mL
E. coli J3272 Tet sens.
  Antibacterial activity (MIC): > 32 µg/mL
[7]
  Antibacterial activity (MIC): 4 µg/mL
E. coli UBMS 90-5
  Antibacterial activity (MIC): > 32 µg/mL
[8]
  Antibacterial activity (MIC): 4 µg/mL
[9]
  Antibacterial activity (MIC): > 32 µg/mL
[10]
  Antibacterial activity (MIC): > 32 µg/mL
[11]
  Antibacterial activity (MIC): 2 µg/mL
E. faecalis ATCC 29212
  Antibacterial activity (MIC): 2 µg/mL
[12]
  Antibacterial activity (MIC): 32 µg/mL
E. coli UBMS 89-1 (tetM)
  Antibacterial activity (MIC): 32 µg/mL
[13]
  Antibacterial activity (MIC): 2 µg/mL
E. coli UBMS 88-1 (tetB)
  Antibacterial activity (MIC): > 32 µg/mL
E. coli J3272 TetD
  Antibacterial activity (MIC): 32 µg/mL
S. mariescens FDOR 8733
  Antibacterial activity (MIC): > 32 µg/mL
E. faecalis 12201
  Antibacterial activity (MIC): 2 µg/mL
S. aureus NEMC 8769/89-4
  Antibacterial activity (MIC): 0.5 µg/mL
E. coli J3272 TetC
  Antibacterial activity (MIC): > 32 µg/mL
E. coli #311 (MP)
  Antibacterial activity (MIC): > 32 µg/mL
[14]
  Antibacterial activity (MIC): 2 µg/mL
S. aureus ROSE (MP)
  Antibacterial activity (MIC): > 32 µg/mL
E. coli PRP1 TetA
  Antibacterial activity (MIC): > 32 µg/mL

## CN(C)c1cc(NC(=O)c2ccc(N)cc2)c(O)c2c1CC1CC3C(N(C)C)C(O)=C(C(N)=O)C(=O)C3(O)C(O)=C1C2=O.O=S(=O)(O)O (centres unmarked) [X, 9-[(4-Aminobenzoyl)amino)-7-(dimethylamino)-6-demethyl-6-deoxytetracycline sulfate]
[2]
  MIC: 8 µg/mL
[4]
  MIC: >32 µg/mL
[15]
  MIC: >32 µg/mL
[5]
  MIC: 1 µg/mL
E. coli ATCC 25922
  MIC: >32 µg/mL
[6]
  MIC: 8 µg/mL
[7]
  MIC: 8 µg/mL
[8]
  MIC: 16 µg/mL
[9]
  MIC: >32 µg/mL
[10]
  MIC: >32 µg/mL
[11]
  MIC: 1 µg/mL
E. faecalis ATCC 29212
  MIC: 8 µg/mL
[12]
  MIC: 8 µg/mL
E. coli UBMS 89-1 (tetM)
  MIC: >32 µg/mL
[13]
  MIC: 1 µg/mL
E. coli UBMS 88-1 (tetB)
  MIC: >32 µg/mL
E. faecalis 12201
  MIC: 32 µg/mL
[14]
  MIC: 0.5 µg/mL

## CN(C)c1cc(NC(=O)CN)c(O)c2c1CC1CC3C(N(C)C)C(O)=C(C(N)=O)C(=O)C3(O)C(O)=C1C2=O.O=C(O)C(F)(F)F (centres unmarked) [M, 9-[(Aminoacetyl)amino]-7-(dimethylamino)-6-demethyl-6-deoxytetracycline mono(trifluoroacetate)]
[2]
  MIC: >32 µg/mL
[4]
  MIC: 2 µg/mL
[15]
  MIC: 2 µg/mL
[5]
  MIC: 0.5 µg/mL
E. coli ATCC 25922
  MIC: 2 µg/mL
[6]
  MIC: 0.5 µg/mL
[7]
  MIC: 1 µg/mL
[8]
  MIC: 2 µg/mL
[9]
  MIC: >32 µg/mL
[10]
  MIC: >32 µg/mL
[11]
  MIC: 1 µg/mL
E. faecalis ATCC 29212
  MIC: 0.25 µg/mL
[12]
  MIC: 1 µg/mL
E. coli UBMS 89-1 (tetM)
  MIC: 2 µg/mL
[13]
  MIC: 1 µg/mL
E. coli UBMS 88-1 (tetB)
  MIC: 2 µg/mL
E. faecalis 12201
  MIC: 0.25 µg/mL
[14]
  MIC: 0.5 µg/mL

From patent publication USRE40086E1, “Method for treating bacterial infection with novel 7-substituted-9-substituted amino 6-demethyl-6-deoxytetracyclines” (Wyeth Holdings Corporation, priority 1991, dated 2008)
